Assay results published in paper PMC10102027, “Helquat dyes targeting G-quadruplexes as a new class of anti-HIV-1 inhibitors” (Scientific Reports, 2023).

System: ss G4 LTR wild-type oligonucleotide
Test: Light-up experiment, ss G4 LTR
Format: binding, HIV-1
Details: 4 μM compound
Method: There are many small molecular probes for specific G4 visualization in cells. […] To distinguish specifically the potential light-up triggered by helquat binding to G-quadruplexes in the HIV-1 LTR, we employed two control oligonucleotides, both unable to form G-quadruplexes (Fig. 6A): an LTR oligonucleotide sequence with two point mutations precluding G4 formation and an LTR oligonucleotide with a scrambled sequence (both adopted from[41]).
The selected compounds were incubated in the presence of the G4 LTR wild-type (wt) oligonucleotide, the G4 LTR M4 + M5 oligonucleotide containing mutations that disabled G-quadruplex formation (described previously[41]), and the G4 LTR scrambled-sequence oligonucleotide, or the buffer-only control. The compounds were tested at a compound:oligonucleotide ratio of 2:1 (4 μM compounds and 2 μM oligonucleotide) in PBS in a 384-well plate. Emission spectra were measured after excitation at 280 nm in a Tecan Infinite M1000 plate reader. The fluorescent image of the plate was taken with the Bio-Rad ChemiDoc imaging system after UV-light excitation. The Light-up titration experiment was performed similarly as described above with the exception that 4 μM compound 12 was incubated with serial dilutions (1:1) of oligonucleotides (ss G4 LTR wild type, G4 c-myc and G4 c-kit1) spanning final concentrations 2 to 0.002 μM. The excitation at 280 nm and emission at 600 nm were used to monitor the Light-up.

[1] = 2 μM oligonucleotide, excitation 280 nm

SMILES: Cn1cc(/C=C/c2cc(/C=C/c3cn(C)c4ccccc34)[n+]3c(c2)-c2c(ccc4c2-c2cccc[n+]2CCC4)CCC3)c2ccccc21 [Compound 12]
- fluorescence light-up [1]: strong and specific fluorescence
- maximum fluorescence intensity with non-G4-forming oligonucleotides (M4 + M5, scrambled), times lower than with wt [1]: 2.5 times
- fluorescence in light-up titration, ss G4 LTR versus c-myc and c-kit1 (oligonucleotide concentration of 0.5 μM and below, emission 600 nm): stronger fluorescence after incubation with ss G4 LTR
